14 compounds from patent US8129371B2, “Thienopyrimidine and pyrazolopyrimidine compounds and their use as mTOR kinase and PI3 kinase inhibitors” (Wyeth LLC, priority 2007, dated 2012) can be followed below.

What is called IC50 is the concentration that inhibits the measured activity by half.

One test concerns the target T1, Human mTOR (FLAG-TOR) (Homo sapiens, UniProt P42345).
T1 construct: FLAG
The test can be described thus: Human mTOR kinase assay with purified enzyme, DELFIA format. The test is classed as biochemical. The essentials:
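Purified FLAG-mTOR in HEPES pH 7.4 buffer with 10 mM MnCl2 was preincubated with inhibitor and reacted 2 h at room temperature with His6-S6K substrate, then stopped with EDTA/EGTA. Phospho-T389 S6K detected by DELFIA with Eu-labelled antibody (40 ng/mL) after plate capture; inhibition computed from signal.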

For the next test, the system named is breast line MDA468. Briefly: In vitro cell culture growth assay (MTS), MDA468. The test is classed as cell-based. As to conditions: Homo sapiens, 72 h, MDA468 cells, three days after drug treatment. The essentials:
(§1)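 The readout was MTS dye metabolism at 490 nm, taken after 3-day drug exposure that began the day after seeding. Growth was expressed as percent of vehicle-treated wells in the same plate.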

The subject of another test is prostate line LNCap. Briefly: In vitro cell culture growth assay (MTS), LNCap. Format: cell-based. Conditions: Homo sapiens, LNCaP, 72 h, LNCap cells, three days after drug treatment. The method in brief:
as §1

Test [1] has as its target T2, PI3K (Homo sapiens, UniProt P48736).
T2 construct: PI3 Kinase γ IC50; other: PI3 Kinase γ; other: PI3 Kinase γ isoform, fluorescence polarization
Briefly: Fluorescence polarization assay for PI3K. The test is classed as biochemical. As to conditions: read-out: PI3 Kinase γ IC50. The essentials: (§2)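 PI3K was preincubated with compound (final DMSO 1%), and the reaction was started with PIP2/ATP substrate and run 30–60 min. It was stopped with a detector mix giving 10 nM red probe and 70 nM GST-GRP.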
(In general: Fluorescence polarisation rises when a labelled molecule tumbles more slowly, as on binding a larger partner.)

Test [2] deals with T3, PI3K (Homo sapiens, UniProt P42336).
T3 construct: PI3 Kinase α IC50; other: PI3 Kinase α; other: PI3 Kinase α isoform, fluorescence polarization
T3 sequence (P42336 whole entry, canonical isoform): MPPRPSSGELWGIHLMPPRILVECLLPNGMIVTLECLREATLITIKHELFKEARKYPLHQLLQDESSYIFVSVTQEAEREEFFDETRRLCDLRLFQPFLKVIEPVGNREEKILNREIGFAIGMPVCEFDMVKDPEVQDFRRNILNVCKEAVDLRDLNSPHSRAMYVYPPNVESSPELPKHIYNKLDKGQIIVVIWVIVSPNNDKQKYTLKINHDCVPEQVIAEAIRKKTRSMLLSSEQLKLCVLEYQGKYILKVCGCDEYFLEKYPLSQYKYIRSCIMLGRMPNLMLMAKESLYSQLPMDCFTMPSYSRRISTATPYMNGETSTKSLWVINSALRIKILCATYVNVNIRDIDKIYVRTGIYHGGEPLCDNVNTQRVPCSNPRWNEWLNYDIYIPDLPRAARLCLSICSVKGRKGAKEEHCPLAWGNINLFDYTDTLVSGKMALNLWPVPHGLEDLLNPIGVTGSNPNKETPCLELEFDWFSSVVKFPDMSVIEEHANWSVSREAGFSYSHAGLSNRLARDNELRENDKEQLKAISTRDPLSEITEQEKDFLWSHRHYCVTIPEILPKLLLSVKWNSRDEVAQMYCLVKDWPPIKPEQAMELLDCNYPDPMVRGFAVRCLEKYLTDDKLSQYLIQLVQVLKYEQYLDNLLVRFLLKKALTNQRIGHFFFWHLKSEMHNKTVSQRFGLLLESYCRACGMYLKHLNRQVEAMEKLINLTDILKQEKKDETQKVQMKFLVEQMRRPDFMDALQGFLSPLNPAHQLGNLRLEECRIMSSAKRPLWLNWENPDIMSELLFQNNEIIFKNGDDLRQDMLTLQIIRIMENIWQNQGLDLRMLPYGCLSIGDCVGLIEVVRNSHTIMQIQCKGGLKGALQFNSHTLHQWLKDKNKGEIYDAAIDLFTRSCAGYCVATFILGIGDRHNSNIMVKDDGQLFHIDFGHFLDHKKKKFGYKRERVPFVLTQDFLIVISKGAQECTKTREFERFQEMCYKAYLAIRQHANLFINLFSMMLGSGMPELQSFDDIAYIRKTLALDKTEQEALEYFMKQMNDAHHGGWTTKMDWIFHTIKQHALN
Briefly: Fluorescence polarization assay for PI3K. Format: biochemical. As to conditions: read-out: PI3 Kinase α IC50. The essentials:
as §2

Where [3] appears, read: purified human mTOR enzyme, DELFIA format.
Setting [4] is: PI3 Kinase γ isoform, fluorescence polarization.
[5] abbreviates: PI3 Kinase α isoform, fluorescence polarization.

Read-outs that look alike come from different tables or passages of the source. Where only a bound is given, the exact number is not on record here.

T2 sequence (P48736 whole entry, canonical isoform): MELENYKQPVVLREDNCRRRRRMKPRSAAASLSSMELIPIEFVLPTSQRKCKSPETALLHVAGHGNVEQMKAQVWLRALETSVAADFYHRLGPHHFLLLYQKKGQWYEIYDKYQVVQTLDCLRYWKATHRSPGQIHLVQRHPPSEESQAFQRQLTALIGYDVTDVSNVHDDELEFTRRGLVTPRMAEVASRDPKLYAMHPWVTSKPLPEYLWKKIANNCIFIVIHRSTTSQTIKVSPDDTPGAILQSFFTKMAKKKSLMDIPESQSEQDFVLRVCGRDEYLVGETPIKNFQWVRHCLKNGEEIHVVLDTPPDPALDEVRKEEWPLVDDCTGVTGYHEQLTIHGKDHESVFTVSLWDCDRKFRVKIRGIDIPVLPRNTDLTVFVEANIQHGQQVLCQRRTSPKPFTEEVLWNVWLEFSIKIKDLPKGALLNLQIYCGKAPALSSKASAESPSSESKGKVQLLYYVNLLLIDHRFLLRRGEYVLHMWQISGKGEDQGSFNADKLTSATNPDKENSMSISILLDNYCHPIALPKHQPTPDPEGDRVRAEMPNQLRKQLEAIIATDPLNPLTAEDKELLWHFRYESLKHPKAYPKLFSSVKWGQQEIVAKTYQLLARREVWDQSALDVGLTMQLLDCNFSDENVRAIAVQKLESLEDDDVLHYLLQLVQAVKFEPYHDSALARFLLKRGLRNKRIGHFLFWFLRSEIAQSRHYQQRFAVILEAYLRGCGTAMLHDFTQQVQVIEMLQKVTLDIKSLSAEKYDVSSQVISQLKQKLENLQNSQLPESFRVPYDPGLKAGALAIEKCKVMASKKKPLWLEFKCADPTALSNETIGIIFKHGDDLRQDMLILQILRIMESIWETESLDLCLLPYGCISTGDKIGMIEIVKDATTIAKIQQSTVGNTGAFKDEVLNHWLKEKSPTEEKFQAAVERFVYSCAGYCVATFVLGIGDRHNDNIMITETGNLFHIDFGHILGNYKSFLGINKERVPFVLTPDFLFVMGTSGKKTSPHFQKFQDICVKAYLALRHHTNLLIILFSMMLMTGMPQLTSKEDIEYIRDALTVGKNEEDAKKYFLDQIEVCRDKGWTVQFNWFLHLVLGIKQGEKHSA

As to `O=C(Nc1ccc(-c2nc(N3CC4CCC(C3)O4)c3cnn(CCO)c3n2)cc1)NC1CC1` [Example 197, 1-cyclopropyl-3-{4-[1-(2-hydroxyethyl)-4-(8-oxa-3-azabicyclo[3.2.1]oct-3-yl)-1H-pyrazolo[3,4-d]pyrimidin-6-yl]phenyl}urea], the 50% inhibitory concentration (IC50) worked out at 2.85 nM on Human mTOR (FLAG-TOR); 1400 nM in the test with breast line MDA468; 400 nM in the test on prostate line LNCap; 12000 nM on PI3K [1] (PI3 Kinase γ); 1340 nM at PI3K [2] (PI3 Kinase α).

In the case of `CCNC(=O)Nc1ccc(-c2nc(N3CC4CCC(C3)O4)c3cnn(C4CCC5(CC4)OCCO5)c3n2)cc1` [Example 123, 1-{4-[1-(1,4-dioxaspiro[4.5]dec-8-yl)-4-(8-oxa-3-azabicyclo[3.2.1]oct-3-yl)-1H-pyrazolo[3,4-d]pyrimidin-6-yl]phenyl}-3-ethylurea], the concentration for half-maximal inhibition (IC50) was 0.26 nM at Human mTOR (FLAG-TOR); 9 nM in the test with breast line MDA468; 1 nM in the test with prostate line LNCap; more than 10000 nM on PI3K [1] (PI3 Kinase γ); 4580 nM at PI3K [2] (PI3 Kinase α).

As for `CCn1ncc2c(N3CC4CCC(C3)O4)nc(-c3ccc(NC(=O)NCCOCCN)cc3)nc21` [Example 225, 1-[2-(2-aminoethoxy)ethyl]-3-{4-[1-ethyl-4-(8-oxa-3-azabicyclo[3.2.1]oct-3-yl)-1H-pyrazolo[3,4-d]pyrimidin-6-yl]phenyl}urea], the IC50 on Human mTOR (FLAG-TOR) was 26.5 nM; with breast line MDA468, 4000 nM; in the test with prostate line LNCap it was 2400 nM; at PI3K [1] (PI3 Kinase γ) it was more than 10000 nM; at PI3K [2] (PI3 Kinase α) it was 1390 nM.

For `CC(C)OC(=O)N1CCC(n2ncc3c(N4CC5CCC(C4)O5)nc(-c4ccc(N)cc4)nc32)CC1` [Example 65, isopropyl 4-[6-(4-aminophenyl)-4-(8-oxa-3-azabicyclo[3.2.1]oct-3-yl)-1H-pyrazolo[3,4-d]pyrimidin-1-yl]piperidine-1-carboxylate], the half-inhibitory concentration (IC50) at Human mTOR (FLAG-TOR) was 46 nM; with breast line MDA468 it was 7000 nM; with prostate line LNCap, 1200 nM; on PI3K [1] (PI3 Kinase γ), more than 10000 nM; on PI3K [2] (PI3 Kinase α), 4630 nM.

Regarding `CCn1ncc2c(N3CC4CCC(C3)O4)nc(-c3ccc(NC(=O)NCCCN(C)C)cc3)nc21` [Example 177, 1-[3-(dimethylamino)propyl]-3-{4-[1-ethyl-4-(8-oxa-3-azabicyclo[3.2.1]oct-3-yl)-1H-pyrazolo[3,4-d]pyrimidin-6-yl]phenyl}urea], the half-inhibitory concentration (IC50) against Human mTOR (FLAG-TOR) is 69.5 nM; in the test on breast line MDA468 it was 4500 nM; in the test with prostate line LNCap it was 1200 nM; at PI3K [1] (PI3 Kinase γ) it was more than 10000 nM; on PI3K [2] (PI3 Kinase α) it was 1640 nM.

On to `CCn1ncc2c(N3CC4CCC(C3)O4)nc(-c3ccc(NC(=O)NCCN4CCOCC4)cc3)nc21` [Example 179, 1-{4-[1-ethyl-4-(8-oxa-3-azabicyclo[3.2.1]oct-3-yl)-1H-pyrazolo[3,4-d]pyrimidin-6-yl]phenyl}-3-(2-morpholin-4-ylethyl)urea], for which the IC50 against Human mTOR (FLAG-TOR) amounted to 66.5 nM; in the test with breast line MDA468, 5000 nM; with prostate line LNCap it was 1700 nM; at PI3K [1] (PI3 Kinase γ), 9980 nM; at PI3K [2] (PI3 Kinase α), 482 nM.

`O=C(Nc1ccc(-c2nc(N3CC4CCC(C3)O4)c3cnn(C4CCN(CC(F)(F)F)CC4)c3n2)cc1)NC1CC1` [Example 265, 1-cyclopropyl-3-(4-{4-(8-oxa-3-azabicyclo[3.2.1]oct-3-yl)-1-[1-(2,2,2-trifluoroethyl)piperidin-4-yl]-1H-pyrazolo[3,4-d]pyrimidin-6-yl}phenyl)urea]: the IC50 on Human mTOR (FLAG-TOR) is 1.2 nM; with breast line MDA468, 700 nM; with prostate line LNCap, 18 nM; on PI3K [1] (PI3 Kinase γ) it was more than 10000 nM; on PI3K [2] (PI3 Kinase α), 3470 nM.

On to `CCn1ncc2c(N3CC4CCC(C3)O4)nc(-c3ccc(NC(=O)NCCC(=O)N4CCN(C)CC4)cc3)nc21` [Example 277, 1-{4-[1-ethyl-4-(8-oxa-3-azabicyclo[3.2.1]oct-3-yl)-1H-pyrazolo[3,4-d]pyrimidin-6-yl]phenyl}-3-[3-(4-methylpiperazin-1-yl)-3-oxopropyl]urea], for which the IC50 was 110 nM against Human mTOR (FLAG-TOR); 8000 nM in the test with breast line MDA468; 3500 nM with prostate line LNCap; more than 10000 nM on PI3K [1] (PI3 Kinase γ); 2950 nM on PI3K [2] (PI3 Kinase α).

Take `CCOC(=O)N1CCC(n2ncc3c(N4CC5CCC(C4)O5)nc(-c4ccc(NC(=O)Nc5ccn[nH]5)cc4)nc32)CC1` [Example 39, ethyl 4-[4-(8-oxa-3-azabicyclo[3.2.1]oct-3-yl)-6-{4-[(1H-pyrazol-5-ylcarbamoyl)amino]phenyl}-1H-pyrazolo[3,4-d]pyrimidin-1-yl]piperidine-1-carboxylate]: the 50% inhibitory concentration (IC50) is 96 nM at Human mTOR (FLAG-TOR); 8000 nM with breast line MDA468; 2600 nM in the test on prostate line LNCap; 8880 nM at PI3K [1] (PI3 Kinase γ); 5700 nM at PI3K [2] (PI3 Kinase α).

As to `CCn1ncc2c(N3CC4CCC(C3)O4)nc(-c3ccc(NC(=O)Nc4ccc(OCCN5CCOCC5)nc4)cc3)nc21` [Example 283, 1-{4-[1-ethyl-4-(8-oxa-3-azabicyclo[3.2.1]oct-3-yl)-1H-pyrazolo[3,4-d]pyrimidin-6-yl]phenyl}-3-[6-(2-morpholin-4-ylethoxy)pyridin-3-yl]urea], the IC50 is 0.975 nM on Human mTOR (FLAG-TOR); 8 nM in the test on breast line MDA468; less than 1 nM in the test with prostate line LNCap; 4750 nM at PI3K [1] (PI3 Kinase γ); 373 nM on PI3K [2] (PI3 Kinase α).

With `O=C(Nc1ccc(-c2nc(N3C4CCC3COC4)c3cnn(CC(F)(F)F)c3n2)cc1)Nc1ccc(N2CCNCC2)cc1` [Example 318, 1-{4-[4-(3-oxa-8-azabicyclo[3.2.1]oct-8-yl)-1-(2,2,2-trifluoroethyl)-1H-pyrazolo[3,4-d]pyrimidin-6-yl]phenyl}-3-(4-piperazin-1-ylphenyl)urea], the concentration for half-maximal inhibition (IC50) was 0.19 nM on Human mTOR (FLAG-TOR) (setting [3]); 1 nM in the test with breast line MDA468; less than 1 nM with prostate line LNCap; 2270 nM on PI3K [1] (setting [4]); 173 nM on PI3K [2] (setting [5]).

Regarding `COC1CCC(n2ncc3c(N4CC5CCC(C4)O5)nc(-c4ccc(NC(=O)Nc5ccc(C(N)=O)cc5)cc4)nc32)CC1` (stereo not shown) [Example 306, 4-[({4-[1-(4-methoxycyclohexyl)-4-(8-oxa-3-azabicyclo[3.2.1]oct-3-yl)-1H-pyrazolo[3,4-d]pyrimidin-6-yl]phenyl}carbamoyl)amino]benzamide], the half-inhibitory concentration (IC50) on Human mTOR (FLAG-TOR) (setting [3]) is 0.079 nM; in the test with breast line MDA468 it was 8 nM; in the test on prostate line LNCap, less than 1 nM; on PI3K [1] (setting [4]), 1270 nM; at PI3K [2] (setting [5]), 88 nM.

For the compound `CCNC(=O)Nc1ccc(-c2nc(N3CC4CCC(C3)O4)c3cnn(C4CCN(C(=O)C(C)C)CC4)c3n2)cc1` [Example 83, 1-ethyl-3-{4-[1-(1-isobutyrylpiperidin-4-yl)-4-(8-oxa-3-azabicyclo[3.2.1]oct-3-yl)-1H-pyrazolo[3,4-d]pyrimidin-6-yl]phenyl}urea], the IC50 was 0.76 nM at Human mTOR (FLAG-TOR); 240 nM in the test with breast line MDA468; 40 nM in the test with prostate line LNCap; more than 10000 nM at PI3K [1] (PI3 Kinase γ); 2350 nM at PI3K [2] (PI3 Kinase α).

With `CS(=O)(=O)N1CCN(Cc2cc3nc(-c4ccc(NC(=O)NC5CC5)cc4)nc(N4CC5CCC(C4)O5)c3s2)CC1` [Example 431, 1-cyclopropyl-3-{4-[6-{[4-(methylsulfonyl)piperazin-1-yl]methyl}-4-(8-oxa-3-azabicyclo[3.2.1]oct-3-yl)thieno[3,2-d]pyrimidin-2-yl]phenyl}urea], the IC50 amounted to 1.01 nM against Human mTOR (FLAG-TOR) (setting [3]); 200 nM in the test on breast line MDA468; 32 nM with prostate line LNCap; 1530 nM at PI3K [1] (setting [4]); 179 nM at PI3K [2] (setting [5]).
